According to PMC7832087 (European journal of medicinal chemistry, 2016):

Tests used:
[1] = test system: donor peripheral blood lymphocytes; experiment: Cytotoxicity for donor lymphocytes; type: cell-based; details: data not shown
Top2 = Top2 (Homo sapiens, UniProt P11388); experiment: Top2 DNA relaxation assay; type: biochemical
Top1 [2] = experiment: Top1 DNA relaxation assay; type: biochemical; details: no influence at ≤1 μM, effect at 5 μM and 10 μM
K562 and K562/4 cells = experiment: Intracellular drug accumulation; type: cell-based, human; details: 1 μM, 1 h to 24 h
Top1 [3] = target: T1, Top1 (Homo sapiens, UniProt P11387); experiment: Top1 mediated DNA cleavage; type: biochemical; details: 117 bp oligonucleotide with Top1 cleavage sites
T1 sequence (P11387 1-765): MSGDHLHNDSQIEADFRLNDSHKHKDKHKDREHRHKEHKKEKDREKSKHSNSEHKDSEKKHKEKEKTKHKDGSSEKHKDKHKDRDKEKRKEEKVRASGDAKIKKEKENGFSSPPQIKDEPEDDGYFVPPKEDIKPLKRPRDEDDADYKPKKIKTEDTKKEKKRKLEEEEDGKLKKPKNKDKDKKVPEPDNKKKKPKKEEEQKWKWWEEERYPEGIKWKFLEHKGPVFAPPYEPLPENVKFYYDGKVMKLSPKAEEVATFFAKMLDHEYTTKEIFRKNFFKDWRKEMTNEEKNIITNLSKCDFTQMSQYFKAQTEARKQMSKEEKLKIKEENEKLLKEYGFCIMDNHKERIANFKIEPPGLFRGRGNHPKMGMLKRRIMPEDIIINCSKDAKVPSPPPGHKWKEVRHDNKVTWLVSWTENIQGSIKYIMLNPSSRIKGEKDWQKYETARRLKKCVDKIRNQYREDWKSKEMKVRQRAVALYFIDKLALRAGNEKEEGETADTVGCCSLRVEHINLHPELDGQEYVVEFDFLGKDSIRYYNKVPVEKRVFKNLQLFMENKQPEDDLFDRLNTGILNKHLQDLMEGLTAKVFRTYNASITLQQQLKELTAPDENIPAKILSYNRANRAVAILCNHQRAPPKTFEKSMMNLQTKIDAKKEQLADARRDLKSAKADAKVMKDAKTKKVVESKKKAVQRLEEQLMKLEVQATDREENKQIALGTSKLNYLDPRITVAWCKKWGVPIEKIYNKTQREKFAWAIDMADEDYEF

[4] = Water solubility of salts; type: physicochemical
[5] = test system: i.p. transplanted P388 leukemia; experiment: Antitumor efficacy, i.p. transplanted P388 leukemia
[6] = test system: HCT116 and HCT116p53KO cells; experiment: Annexin V-FITC / PI staining; type: cell-based, human; details: 1 μM, 24 h
[7] = test system: 364 human protein kinases; experiment: In vitro kinase panel; type: biochemical
[8] = test system: i.p. transplanted P388 leukemia; details: similar treatment schedule, total dose 150 mg/kg for five days; cited from earlier work
Aurora B = Aurora B (Homo sapiens, UniProt Q96GD4); experiment: In vitro kinase assay, Aurora B; type: biochemical
Chain of Aurora B (Q96GD4 whole entry): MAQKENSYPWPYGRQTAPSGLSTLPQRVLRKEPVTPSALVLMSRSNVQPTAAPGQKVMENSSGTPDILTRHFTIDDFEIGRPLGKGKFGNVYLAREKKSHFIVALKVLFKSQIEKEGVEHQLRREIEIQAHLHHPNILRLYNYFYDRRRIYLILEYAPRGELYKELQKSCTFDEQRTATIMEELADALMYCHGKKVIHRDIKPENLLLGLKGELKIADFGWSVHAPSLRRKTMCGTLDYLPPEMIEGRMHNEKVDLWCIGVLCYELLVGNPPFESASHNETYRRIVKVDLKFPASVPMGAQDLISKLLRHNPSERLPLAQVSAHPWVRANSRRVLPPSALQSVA

Chain of Top2 (P11388 whole entry, species assumed): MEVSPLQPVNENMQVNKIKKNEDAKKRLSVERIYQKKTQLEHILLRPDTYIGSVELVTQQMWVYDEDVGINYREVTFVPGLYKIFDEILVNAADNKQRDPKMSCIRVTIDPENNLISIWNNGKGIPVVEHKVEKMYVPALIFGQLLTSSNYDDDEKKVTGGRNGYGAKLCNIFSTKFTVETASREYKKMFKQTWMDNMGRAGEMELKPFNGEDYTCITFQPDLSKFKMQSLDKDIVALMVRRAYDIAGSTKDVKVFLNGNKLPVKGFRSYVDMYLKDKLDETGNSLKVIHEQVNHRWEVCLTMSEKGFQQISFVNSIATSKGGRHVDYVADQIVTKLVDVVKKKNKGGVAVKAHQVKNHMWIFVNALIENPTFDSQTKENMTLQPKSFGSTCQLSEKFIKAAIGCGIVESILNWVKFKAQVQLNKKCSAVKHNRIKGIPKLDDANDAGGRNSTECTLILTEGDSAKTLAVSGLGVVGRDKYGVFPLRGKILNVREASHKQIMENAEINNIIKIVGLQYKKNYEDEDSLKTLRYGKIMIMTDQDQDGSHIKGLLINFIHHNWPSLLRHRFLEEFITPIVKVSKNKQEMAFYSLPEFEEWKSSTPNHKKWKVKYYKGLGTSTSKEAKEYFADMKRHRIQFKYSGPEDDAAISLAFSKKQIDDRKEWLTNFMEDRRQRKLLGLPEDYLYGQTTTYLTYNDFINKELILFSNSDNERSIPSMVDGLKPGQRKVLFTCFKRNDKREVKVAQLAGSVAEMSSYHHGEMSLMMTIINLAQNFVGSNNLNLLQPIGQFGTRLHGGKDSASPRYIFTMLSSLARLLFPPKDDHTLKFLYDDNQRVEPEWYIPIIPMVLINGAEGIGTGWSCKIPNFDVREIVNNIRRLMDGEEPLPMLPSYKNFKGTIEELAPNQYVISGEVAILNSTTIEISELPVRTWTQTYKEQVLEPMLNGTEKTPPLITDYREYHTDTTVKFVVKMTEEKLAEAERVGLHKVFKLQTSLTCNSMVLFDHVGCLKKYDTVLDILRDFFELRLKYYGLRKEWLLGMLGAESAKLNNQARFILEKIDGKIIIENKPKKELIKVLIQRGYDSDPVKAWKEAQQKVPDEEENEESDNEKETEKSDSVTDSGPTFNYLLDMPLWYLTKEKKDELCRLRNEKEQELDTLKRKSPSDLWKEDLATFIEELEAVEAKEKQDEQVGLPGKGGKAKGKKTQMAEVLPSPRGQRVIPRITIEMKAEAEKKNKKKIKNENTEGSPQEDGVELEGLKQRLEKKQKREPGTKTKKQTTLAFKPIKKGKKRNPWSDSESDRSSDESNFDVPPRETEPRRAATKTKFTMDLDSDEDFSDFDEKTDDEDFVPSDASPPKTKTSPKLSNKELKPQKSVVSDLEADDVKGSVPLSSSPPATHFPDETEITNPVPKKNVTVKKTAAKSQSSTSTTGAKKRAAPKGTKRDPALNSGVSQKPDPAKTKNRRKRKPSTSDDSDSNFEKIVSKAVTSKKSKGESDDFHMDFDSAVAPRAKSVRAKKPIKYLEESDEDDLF

**Q.** With `CS(=O)(=O)O.Cc1oc2c(O)c3c(c(O)c2c1C(=O)N1CC[C@@H](N)C1)C(=O)c1ccccc1C3=O` [Compound 3c, (R)-3-(3-Aminopyrrolidine-1-carbonyl)-4,11-dihydroxy-2methylanthra [2,3-b]furan-5,10-dione methanesulfonate] as the compound, how does the “cytotoxicity against donor peripheral blood lymphocytes” value [1] read?
**A.** Its value is “no detectable cytotoxicity”.

**Q.** What about the “Top2 mediated plasmid DNA relaxation” value (Top2) of the same compound?
**A.** Its value is “even at 40 μM a certain amount of relaxed plasmid DNA was detectable”.

**Q.** And the “Top1 mediated relaxation of supercoiled plasmid DNA” value (Top1 [2])?
**A.** The value was “attenuated Top1 mediated relaxation of the supercoiled plasmid DNA in a dose dependent manner”.

**Q.** What about the “cell associated fluorescence (intracellular accumulation), K562 vs K562/4” value (“cell associated fluorescence … vs K562/4” below) (K562 and K562/4 cells) of the same compound?
**A.** The value was “increased similarly over time”.

**Q.** And the “Top1 mediated specific DNA cleavage” value (Top1 [3])?
**A.** The value was “poorly generated the specific DNA cleavage”.

**Q.** With `COc1cc2c3c(n(CCCNCCO)c(=O)c2cc1OC)-c1cc2c(cc1C3=O)OCO2` [MJ–III–65] as the compound, how does the “Top1 mediated specific DNA cleavage” value (Top1 [3]) read?
**A.** Its value is “pattern of bands characteristic for specific Top1 poisons”.

**Q.** With `CS(=O)(=O)O.Cc1oc2c(O)c3c(c(O)c2c1C(=O)N1CCN(C)CC1)C(=O)c1ccccc1C3=O` [Compound 3l, 4,11-Dihydroxy-2-methyl-3-(4-methylpiperazine-1carbonyl)anthra [2,3-b]furan-5,10-dione methanesulfonate] as the compound, how does the “water solubility of the salt” value [4] read?
**A.** Its value is “water soluble mesylates”.

**Q.** For `CS(=O)(=O)O.Cc1oc2c(O)c3c(c(O)c2c1C(=O)N1CC[C@H](N)C1)C(=O)c1ccccc1C3=O` [Compound 3d, (S)-3-(3-Aminopyrrolidine-1-carbonyl)-4,11-dihydroxy-2methylanthra [2,3-b]furan-5,10-dione methanesulfonate], which “cytotoxicity against donor peripheral blood lymphocytes” value [1] is on record?
**A.** The value was “no detectable cytotoxicity”.

**Q.** What about the “Top2 mediated plasmid DNA relaxation” value (Top2) of the same compound?
**A.** The value was “even at 40 μM a certain amount of relaxed plasmid DNA was detectable”.

**Q.** What about the “Top1 mediated relaxation of supercoiled plasmid DNA” value (Top1 [2]) of the same compound?
**A.** Its value is “attenuated Top1 mediated relaxation of the supercoiled plasmid DNA in a dose dependent manner”.

**Q.** And the “cell associated fluorescence … vs K562/4” value (K562 and K562/4 cells)?
**A.** The value was “increased similarly over time”.

**Q.** What about the “Top1 mediated specific DNA cleavage” value (Top1 [3]) of the same compound?
**A.** Its value is “poorly generated the specific DNA cleavage”.

**Q.** And the “T/C, %” value ([5]; Table 3, n = 6, single 50 mg/kg i.p. daily days 1–5 (total 250 mg/kg))?
**A.** Its value is “death from drug toxicity”.

**Q.** What about the “toxicity at single dose of 50 mg/kg” value ([5]; single dose 50 mg/kg i.p. daily for 5 days (total 250 mg/kg)) of the same compound?
**A.** Its value is “lethally toxic”.

**Q.** And the general drug toxicity ([5]; single doses of 5–40 mg/kg i.p. daily for 5 days, during or after treatment)?
**A.** Its general drug toxicity is “No signs of general drug toxicity”.

**Q.** And the “apoptotic (Annexin V+/PI−) events” value [6]?
**A.** The value was “increased percentage of apoptotic”.

**Q.** What about the “human protein kinases attenuated (IC50 < 5 μM) out of 364” value [7] of the same compound?
**A.** The value was 2.5%.

**Q.** With `CC[C@@]1(O)C(=O)OCc2c1cc1n(c2=O)Cc2cc3ccccc3nc2-1` [CPT, camptothecin] as the compound, how does the “Top1 mediated specific DNA cleavage” value (Top1 [3]) read?
**A.** The value was “pattern of bands characteristic for specific Top1 poisons”.

**Q.** With `COc1cc([C@@H]2c3cc4c(cc3[C@@H](O[C@@H]3O[C@@H]5CO[C@@H](C)O[C@H]5[C@H](O)[C@H]3O)[C@H]3COC(=O)[C@H]23)OCO4)cc(OC)c1O` [VP16, etoposide, reference compound] as the compound, how does the “Top2 mediated plasmid DNA relaxation” value (Top2) read?
**A.** Its value is “even at 200 μM of VP16 the DNA remained largely unwound”.

**Q.** With `COc1cccc2c1C(=O)c1c(O)c3c(c(O)c1C2=O)C[C@@](O)(C(=O)CO)C[C@@H]3O[C@H]1C[C@H](N)[C@H](O)[C@H](C)O1` [Compound 1, doxorubicin, reference compound] as the compound, how does the “cell associated fluorescence … vs K562/4” value (K562 and K562/4 cells) read?
**A.** Its value is “increased to a much lesser extent”.

**Q.** With `O=C1c2ccccc2C(=O)c2c1c(O)c1[nH]cc(CN[C@@H]3CCNC3)c1c2O` [Compound 2] as the compound, how does the “Top1 mediated specific DNA cleavage” value (Top1 [3]) read?
**A.** The value was “cleaved some but not all these sites”.

**Q.** And the T/Cmax [8]?
**A.** Its T/Cmax is 155%.

**Q.** And the IC50 (Aurora B)?
**A.** Its IC50 is 130 to 150 µM.
